The values that follow are results of earlier work, collected in patent publication US20220211602A1, “INCREASING THE STABILITY OF AGENTS FOR TREATING KERATIN MATERIAL” (Henkel AG & Co. KGaA, priority 2019, published 2022).

The conditions of the series: for solubility in water: 25° C.

Consider `O=S(=O)([O-])c1ccc(N=Nc2c(O)ccc3ccccc23)cc1.[Na+]` [Acid Orange 7, sodium salt of 4-[(2-hydroxy-1-naphthyDazo]benzene sulphonate], for which the solubility in water result is “more than 7 g/L”.

Regarding `Nc1cc(S(=O)(=O)[O-])cc2cc(S(=O)(=O)[O-])c(N=Nc3ccccc3)c(O)c12.[Na+].[Na+]` [Acid Red 33, disodium salt of 5-amino-4-hydroxy-3-(phenylazo)-naphthalene-2,7-disulphonate], the solubility in water was 2500 µg/mL.

Turning to `O=C([O-])c1c(Cl)c(Cl)c(Cl)c(Cl)c1-c1c2c(Br)cc(=O)c(Br)c-2oc2c(Br)c(O)cc(Br)c12.O=C([O-])c1c(Cl)c(Cl)c(Cl)c(Cl)c1-c1c2c(Br)cc(=O)c(Br)c-2oc2c(Br)c(O)cc(Br)c12.[Na+].[Na+]` [Acid Red 92, disodium salt of 3,4,5,6-tetrachloro-2-(1,4,5,8-tetrabromo-6-hydroxy-3-oxoxanthen-9-yl)benzoic acid], the solubility in water result is listed as “greater than 10 g/L”.

With `O=C([O-])C1=NN(c2ccc(S(=O)(=O)[O-])cc2)C(=O)C1N=Nc1ccc(S(=O)(=O)[O-])cc1.[Na+].[Na+].[Na+]` (stereo not shown) [Acid Yellow 23, trisodium salt of4,5-dihydro-5-oxo-1-(4-sulfophenyl)-4-((4-sulfophenyl)azo)-1H-pyrazole-3-carboxylic acid], the “solubility in water (in words)” value (at 25° C.) is listed as “highly soluble”.
